Test system: LG0703-F498-PDC complex spheroid growth
Experiment: Anticancer human tumor LG0703-F498-PDC patient-derived lung adenocarcinoma cell line growth inhibition [AhR]
Conditions: for IC50: curve of first compound; for viability, T/C: stronger effect = lower value
Summary of the method: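 Spheroids combined tumor cells with HUVEC endothelial cells and human MSCs as stroma. AhR antagonists were paired with standard or investigational drugs, each dosed in half-log steps down from near clinical Cmax, or from 10 microM where Cmax was unknown.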

[1] = second compound 0.1 µM, first compound 0.0316 µM
[2] = second compound 0.1 µM, first compound 0.1 µM
[3] = second compound 0.1 µM, first compound 0.316 µM
[4] = second compound 0.1 µM, first compound 1 µM
[5] = second compound 0.1 µM, first compound 3.16 µM
[6] = second compound 0.1 µM, first compound 10 µM
[7] = second compound 0.316 µM, first compound 0.0316 µM
[8] = second compound 0.316 µM, first compound 0.1 µM
[9] = second compound 0.316 µM, first compound 0.316 µM
[10] = second compound 0.316 µM, first compound 1 µM
[11] = second compound 0.316 µM, first compound 3.16 µM
[12] = second compound 0.316 µM, first compound 10 µM
[13] = second compound 1 µM, first compound 0.0316 µM
[14] = second compound 1 µM, first compound 0.1 µM
[15] = second compound 1 µM, first compound 0.316 µM
[16] = second compound 1 µM, first compound 1 µM
[17] = second compound 1 µM, first compound 3.16 µM
[18] = second compound 1 µM, first compound 10 µM
[19] = second compound 3.16 µM, first compound 0.0316 µM
[20] = second compound 3.16 µM, first compound 0.1 µM
[21] = second compound 3.16 µM, first compound 0.316 µM
[22] = second compound 3.16 µM, first compound 1 µM
[23] = second compound 3.16 µM, first compound 3.16 µM
[24] = second compound 3.16 µM, first compound 10 µM
[25] = second compound 10 µM, first compound 0.0316 µM
[26] = second compound 10 µM, first compound 0.1 µM
[27] = second compound 10 µM, first compound 0.316 µM
[28] = second compound 10 µM, first compound 1 µM
[29] = second compound 10 µM, first compound 3.16 µM
[30] = second compound 10 µM, first compound 10 µM
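Further: luminescence taken as a proxy for viable cell amount.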
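Wherever viability, T/C is given: percent of DMSO vehicle control where 100% means growth equal to vehicle.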

SMILES: CC(C)CC(NC(=O)C(Cc1ccccc1)NC(=O)c1cnccn1)B(O)O (stereo not given) + Cc1cncc(-c2nc(NCCc3c[nH]c4ccccc34)c3ncn(C(C)C)c3n2)c1
- IC50 (second compound 0.1 µM): 4.06 nM
- IC50 (second compound 0.316 µM): 4.36 nM
- IC50 (second compound 1 µM): 3.62 nM
- IC50 (second compound 3.16 µM): 1.12 nM
- IC50 (second compound 10 µM): < 0.949 nM
- viability, T/C (second compound 0.1 µM, first compound 0.000949 µM): 90.8%
- viability, T/C (second compound 0.1 µM, first compound 0.003 µM): 65.4%
- viability, T/C (second compound 0.1 µM, first compound 0.00949 µM): 6.78%
- viability, T/C (second compound 0.1 µM, first compound 0.03 µM): 0.57%
- viability, T/C (second compound 0.1 µM, first compound 0.0949 µM): 0.07%
- viability, T/C (second compound 0.1 µM, first compound 0.3 µM): 0.18%
- viability, T/C (second compound 0.316 µM, first compound 0.000949 µM): 101%
- viability, T/C (second compound 0.316 µM, first compound 0.003 µM): 71.3%
- viability, T/C (second compound 0.316 µM, first compound 0.00949 µM): 5.68%
- viability, T/C (second compound 0.316 µM, first compound 0.03 µM): 0.52%
- viability, T/C (second compound 0.316 µM, first compound 0.0949 µM): 0.13%
- viability, T/C (second compound 0.316 µM, first compound 0.3 µM): 0.41%
- viability, T/C (second compound 1 µM, first compound 0.000949 µM): 115%
- viability, T/C (second compound 1 µM, first compound 0.003 µM): 58.9%
- viability, T/C (second compound 1 µM, first compound 0.00949 µM): 4.01%
- viability, T/C (second compound 1 µM, first compound 0.03 µM): 0.74%
- viability, T/C (second compound 1 µM, first compound 0.0949 µM): 0.04%
- viability, T/C (second compound 1 µM, first compound 0.3 µM): 0.35%
- viability, T/C (second compound 3.16 µM, first compound 0.000949 µM): 52.8%
- viability, T/C (second compound 3.16 µM, first compound 0.003 µM): 33.7%
- viability, T/C (second compound 3.16 µM, first compound 0.00949 µM): 1.21%
- viability, T/C (second compound 3.16 µM, first compound 0.03 µM): 0.06%
- viability, T/C (second compound 3.16 µM, first compound 0.0949 µM): 0.5%
- viability, T/C (second compound 3.16 µM, first compound 0.3 µM): 0.67%
- viability, T/C (second compound 10 µM, first compound 0.000949 µM): 1.32%
- viability, T/C (second compound 10 µM, first compound 0.003 µM): 0.98%
- viability, T/C (second compound 10 µM, first compound 0.00949 µM): 0.8%
- viability, T/C (second compound 10 µM, first compound 0.03 µM): 0.13%
- viability, T/C (second compound 10 µM, first compound 0.0949 µM): 1.1%
- viability, T/C (second compound 10 µM, first compound 0.3 µM): 1.18%

SMILES: COc1cc(Nc2ncc3c(n2)-c2ccc(Cl)cc2C(c2c(F)cccc2OC)=NC3)ccc1C(=O)O + Cc1cncc(-c2nc(NCCc3c[nH]c4ccccc34)c3ncn(C(C)C)c3n2)c1
- IC50 (second compound 0.1 µM): 3970 nM
- IC50 (second compound 0.316 µM): 5260 nM
- IC50 (second compound 1 µM): 2830 nM
- IC50 (second compound 3.16 µM): < 31.6 nM
- IC50 (second compound 10 µM): < 31.6 nM
- viability, T/C [1]: 88.6%
- viability, T/C [2]: 77.1%
- viability, T/C [3]: 65.4%
- viability, T/C [4]: 65.8%
- viability, T/C [5]: 60.2%
- viability, T/C [6]: 35%
- viability, T/C [7]: 81.8%
- viability, T/C [8]: 80.5%
- viability, T/C [9]: 58.9%
- viability, T/C [10]: 78.2%
- viability, T/C [11]: 58.1%
- viability, T/C [12]: 38.2%
- viability, T/C [13]: 94.4%
- viability, T/C [14]: 70.7%
- viability, T/C [15]: 63%
- viability, T/C [16]: 63.7%
- viability, T/C [17]: 55.9%
- viability, T/C [18]: 35.1%
- viability, T/C [19]: 45.7%
- viability, T/C [20]: 33.3%
- viability, T/C [21]: 38.1%
- viability, T/C [22]: 34.6%
- viability, T/C [23]: 18.9%
- viability, T/C [24]: 10.2%
- viability, T/C [25]: 1.81%
- viability, T/C [26]: 1.7%
- viability, T/C [27]: 2.07%
- viability, T/C [28]: 1.87%
- viability, T/C [29]: 1.84%
- viability, T/C [30]: 3.35%

SMILES: NS(=O)(=O)OCC1CC(n2ccc3c(NC4CCc5ccccc54)ncnc32)CC1O (stereo not given) + Cc1cncc(-c2nc(NCCc3c[nH]c4ccccc34)c3ncn(C(C)C)c3n2)c1
- IC50 (second compound 0.1 µM): 3930 nM
- IC50 (second compound 0.316 µM): 2730 nM
- IC50 (second compound 1 µM): 2200 nM
- IC50 (second compound 3.16 µM): 725 nM
- IC50 (second compound 10 µM): < 31.6 nM
- viability, T/C [1]: 105%
- viability, T/C [2]: 113%
- viability, T/C [3]: 66.7%
- viability, T/C [4]: 101%
- viability, T/C [5]: 44%
- viability, T/C [6]: 30.7%
- viability, T/C [7]: 113%
- viability, T/C [8]: 97.3%
- viability, T/C [9]: 53.3%
- viability, T/C [10]: 97.2%
- viability, T/C [11]: 39.8%
- viability, T/C [12]: 28.9%
- viability, T/C [13]: 111%
- viability, T/C [14]: 79.7%
- viability, T/C [15]: 54%
- viability, T/C [16]: 106%
- viability, T/C [17]: 32.6%
- viability, T/C [18]: 26.2%
- viability, T/C [19]: 70.9%
- viability, T/C [20]: 70.1%
- viability, T/C [21]: 50%
- viability, T/C [22]: 55.4%
- viability, T/C [23]: 27.2%
- viability, T/C [24]: 16.9%
- viability, T/C [25]: 2.35%
- viability, T/C [26]: 3.18%
- viability, T/C [27]: 6.94%
- viability, T/C [28]: 2.85%
- viability, T/C [29]: 6.79%
- viability, T/C [30]: 5.98%

SMILES: O=C(C=Cc1cccc(S(=O)(=O)Nc2ccccc2)c1)NO + Cc1cncc(-c2nc(NCCc3c[nH]c4ccccc34)c3ncn(C(C)C)c3n2)c1
- IC50 (second compound 0.1 µM): 619 nM
- IC50 (second compound 0.316 µM): 657 nM
- IC50 (second compound 1 µM): 523 nM
- IC50 (second compound 3.16 µM): 423 nM
- IC50 (second compound 10 µM): < 31.6 nM
- viability, T/C [1]: 118%
- viability, T/C [2]: 115%
- viability, T/C [3]: 75.8%
- viability, T/C [4]: 30.8%
- viability, T/C [5]: 10.1%
- viability, T/C [6]: 1.27%
- viability, T/C [7]: 111%
- viability, T/C [8]: 104%
- viability, T/C [9]: 81.1%
- viability, T/C [10]: 32%
- viability, T/C [11]: 7.58%
- viability, T/C [12]: 1.48%
- viability, T/C [13]: 106%
- viability, T/C [14]: 108%
- viability, T/C [15]: 69.3%
- viability, T/C [16]: 23.6%
- viability, T/C [17]: 6.31%
- viability, T/C [18]: 0.83%
- viability, T/C [19]: 59.9%
- viability, T/C [20]: 71.5%
- viability, T/C [21]: 57.8%
- viability, T/C [22]: 25%
- viability, T/C [23]: 6.63%
- viability, T/C [24]: 1.68%
- viability, T/C [25]: 1.93%
- viability, T/C [26]: 2.88%
- viability, T/C [27]: 4.14%
- viability, T/C [28]: 8.01%
- viability, T/C [29]: 9.58%
- viability, T/C [30]: 1.55%

From PubChem BioAssay AID1919013 (Molecular Pharmacology Branch, DTP, NCI, 2023)
